# Experimental data from PMC7429357 (Journal of medicinal chemistry, 2020).
# Where two headings read alike, the source gives them in different places.
# Assays:
# NTMT1 [1] = biological target: T1, NTMT1 (Homo sapiens, UniProt Q9BV86)
# T1 sequence (Q9BV86 1-223): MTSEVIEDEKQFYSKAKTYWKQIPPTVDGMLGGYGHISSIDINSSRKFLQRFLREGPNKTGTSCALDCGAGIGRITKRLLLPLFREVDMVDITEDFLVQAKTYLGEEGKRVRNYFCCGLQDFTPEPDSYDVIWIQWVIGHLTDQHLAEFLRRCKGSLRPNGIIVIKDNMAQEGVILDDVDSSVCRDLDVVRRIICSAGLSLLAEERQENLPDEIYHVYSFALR
# NTMT1 [2] = biological target: T1, NTMT1; test: SAHH-coupled fluorescence assay; assay type: biochemical; conditions: for fold decrease in IC50 activity compared to 3: 10 min preincubation; for fold activity decrease compared to respective NAH-GPKRIA compound: 5 vs 1, 6 vs 2
# [3] = biological target: Trypanosoma brucei protein arginine methyltransferase 7 (TbPRMT7) (Trypanosoma brucei brucei, UniProt Q582G4); test: biochemical
# [4] = biological target: euchromatic histone-lysine N-methyltransferase 2 (G9a) (Homo sapiens, UniProt Q96KQ7); conditions: at 100 μM
# NTMT1 [5] = biological target: T1, NTMT1; test: MALDI-MS methylation inhibition assay; assay type: biochemical; conditions: 10 min preincubation, 20 min
# [6] = biological target: SET domain-containing protein 7 (SETD7) (Homo sapiens, UniProt Q8WTS6); conditions: at 100 μM
# [7] = biological target: nicotinamide N-methyltransferase (NNMT) (Homo sapiens, UniProt P40261); conditions: at 100 μM
# NTMT1 [8] = conditions: cited from earlier work
# NTMT1 [9] = conditions: MALDI-MS based assay; cited from earlier work
# other methyltransferases = conditions: cited from earlier work
# Sequence of SET domain-containing protein 7 (SETD7) (Q8WTS6 whole entry, species assumed, the tested form may be a part): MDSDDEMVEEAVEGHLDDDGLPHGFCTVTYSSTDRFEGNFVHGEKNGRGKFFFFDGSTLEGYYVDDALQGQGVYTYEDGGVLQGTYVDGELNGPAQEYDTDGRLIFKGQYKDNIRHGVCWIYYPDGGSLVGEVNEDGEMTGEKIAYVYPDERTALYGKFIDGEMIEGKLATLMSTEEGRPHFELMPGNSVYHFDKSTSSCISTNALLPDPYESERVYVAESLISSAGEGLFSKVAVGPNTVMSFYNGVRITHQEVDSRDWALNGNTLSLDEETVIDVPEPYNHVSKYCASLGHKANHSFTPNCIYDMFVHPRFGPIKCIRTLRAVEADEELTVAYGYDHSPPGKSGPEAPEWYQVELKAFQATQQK
# Sequence of euchromatic histone-lysine N-methyltransferase 2 (G9a) (Q96KQ7 whole entry, species assumed): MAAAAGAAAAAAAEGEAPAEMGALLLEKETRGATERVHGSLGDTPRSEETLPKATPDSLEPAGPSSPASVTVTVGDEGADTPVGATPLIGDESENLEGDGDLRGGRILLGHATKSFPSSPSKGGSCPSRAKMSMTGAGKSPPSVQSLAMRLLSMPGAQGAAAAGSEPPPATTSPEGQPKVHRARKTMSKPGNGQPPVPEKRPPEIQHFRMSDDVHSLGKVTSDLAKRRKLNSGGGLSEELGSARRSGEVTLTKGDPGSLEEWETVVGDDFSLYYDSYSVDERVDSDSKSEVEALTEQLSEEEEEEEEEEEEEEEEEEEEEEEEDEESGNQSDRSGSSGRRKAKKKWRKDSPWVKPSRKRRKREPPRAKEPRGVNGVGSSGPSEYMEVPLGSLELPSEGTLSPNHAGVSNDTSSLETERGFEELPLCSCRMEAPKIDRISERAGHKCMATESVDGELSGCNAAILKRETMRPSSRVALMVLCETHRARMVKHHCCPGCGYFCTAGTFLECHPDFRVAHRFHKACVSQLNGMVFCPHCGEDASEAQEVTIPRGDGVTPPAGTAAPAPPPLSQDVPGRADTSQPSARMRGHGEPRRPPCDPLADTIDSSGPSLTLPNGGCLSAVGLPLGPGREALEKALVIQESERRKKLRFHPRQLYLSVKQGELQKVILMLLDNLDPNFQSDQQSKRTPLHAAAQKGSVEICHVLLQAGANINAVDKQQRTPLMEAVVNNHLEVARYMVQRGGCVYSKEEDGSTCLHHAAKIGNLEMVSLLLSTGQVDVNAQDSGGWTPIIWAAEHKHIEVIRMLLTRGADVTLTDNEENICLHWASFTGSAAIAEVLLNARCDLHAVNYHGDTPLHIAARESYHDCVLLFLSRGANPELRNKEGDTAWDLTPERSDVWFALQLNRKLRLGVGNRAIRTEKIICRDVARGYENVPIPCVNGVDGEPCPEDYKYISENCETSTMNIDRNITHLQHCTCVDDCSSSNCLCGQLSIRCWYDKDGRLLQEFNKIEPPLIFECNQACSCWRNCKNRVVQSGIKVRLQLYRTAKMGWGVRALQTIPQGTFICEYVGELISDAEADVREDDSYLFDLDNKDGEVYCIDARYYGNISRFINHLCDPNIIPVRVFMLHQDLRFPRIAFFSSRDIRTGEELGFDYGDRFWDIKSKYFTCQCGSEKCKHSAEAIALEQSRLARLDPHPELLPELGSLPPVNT
# Sequence of nicotinamide N-methyltransferase (NNMT) (P40261 whole entry, species assumed): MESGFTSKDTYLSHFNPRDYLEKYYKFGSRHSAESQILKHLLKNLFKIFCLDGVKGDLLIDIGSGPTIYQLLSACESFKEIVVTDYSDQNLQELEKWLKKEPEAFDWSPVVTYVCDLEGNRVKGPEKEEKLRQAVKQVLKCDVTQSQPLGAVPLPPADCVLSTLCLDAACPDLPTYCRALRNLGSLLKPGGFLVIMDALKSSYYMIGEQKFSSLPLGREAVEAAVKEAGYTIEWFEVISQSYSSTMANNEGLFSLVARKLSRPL
# Sequence of Trypanosoma brucei protein arginine methyltransferase 7 (TbPRMT7) (Q582G4 whole entry): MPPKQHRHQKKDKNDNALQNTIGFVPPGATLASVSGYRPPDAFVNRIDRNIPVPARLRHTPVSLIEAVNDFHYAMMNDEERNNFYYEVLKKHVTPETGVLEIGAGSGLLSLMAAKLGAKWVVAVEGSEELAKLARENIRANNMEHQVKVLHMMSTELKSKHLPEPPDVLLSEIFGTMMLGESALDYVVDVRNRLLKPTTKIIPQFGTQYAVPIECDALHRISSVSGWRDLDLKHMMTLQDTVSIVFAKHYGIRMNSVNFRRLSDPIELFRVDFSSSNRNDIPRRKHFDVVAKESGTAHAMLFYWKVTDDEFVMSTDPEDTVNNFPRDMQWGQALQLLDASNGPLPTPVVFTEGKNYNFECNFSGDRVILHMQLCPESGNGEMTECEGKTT
compound,measurement,setting,value
"CC[C@H](C)[C@H](NC(=O)[C@H](CCCNC(=N)N)NC(=O)[C@H](CCCCN)NC(=O)[C@@H]1CCCN1C(=O)CNCCN(CC[C@H](N)C(=O)O)C[C@H]1O[C@@H](n2cnc3c(N)ncnc32)[C@H](O)[C@@H]1O)C(=O)N[C@@H](C)C(N)=O [Compound 1, NAH-C2-GPKRIA]","fold decrease in Ki, app in comparison with 3",NTMT1 [1],40 fold
same,fold decrease in IC50 activity compared to 3,NTMT1 [2],3 fold
"CC[C@H](C)[C@H](NC(=O)[C@H](CCCNC(=N)N)NC(=O)[C@H](CCCCN)NC(=O)[C@@H]1CCCN1C(=O)CNCCCN(CC[C@H](N)C(=O)O)C[C@H]1O[C@@H](n2cnc3c(N)ncnc32)[C@H](O)[C@@H]1O)C(=O)N[C@@H](C)C(N)=O [Compound 2, NAH-C3-GPKRIA]",fold decrease in IC50 activity compared to 3,NTMT1 [2],1.5 fold
"CC[C@H](C)[C@H](NC(=O)[C@H](CCCNC(=N)N)NC(=O)[C@H](CCCCN)NC(=O)[C@@H]1CCCN1C(=O)CNCCCCN(CC[C@H](N)C(=O)O)C[C@H]1O[C@@H](n2cnc3c(N)ncnc32)[C@H](O)[C@@H]1O)C(=O)N[C@@H](C)C(N)=O [Compound 3, NAH-C4-GPKRIA]",inhibition at 33 µM,[3],< 50%
same,inhibitory activity,[4],barely showed inhibitory activity
same,tri-methylation of GPKRIA peptide,NTMT1 [5]; 50 nM compound,substantially reduced
same,tri-methylation of GPKRIA peptide,NTMT1 [5]; 200 nM compound,barely detected
same,inhibitory activity,[6],barely showed inhibitory activity
same,inhibitory activity,[7],barely showed inhibitory activity
"N=C(N)NCCC[C@H](NC(=O)[C@H](CCCCN)NC(=O)[C@@H]1CCCN1C(=O)CNCCN(CC[C@H](N)C(=O)O)C[C@H]1O[C@@H](n2cnc3c(N)ncnc32)[C@H](O)[C@@H]1O)C(N)=O [Compound 5, NAH-C2-GPKR]",fold activity decrease compared to respective NAH-GPKRIA compound,NTMT1 [2],< 2 fold
"N=C(N)NCCC[C@H](NC(=O)[C@H](CCCCN)NC(=O)[C@@H]1CCCN1C(=O)CNCCCN(CC[C@H](N)C(=O)O)C[C@H]1O[C@@H](n2cnc3c(N)ncnc32)[C@H](O)[C@@H]1O)C(N)=O [Compound 6, NAH-C3-GPKR]",fold activity decrease compared to respective NAH-GPKRIA compound,NTMT1 [2],< 2 fold
"N=C(N)NCCC[C@H](NC(=O)[C@H](CCCCN)NC(=O)[C@@H]1CCCN1C(=O)CNCCCCN(CC[C@H](N)C(=O)O)C[C@H]1O[C@@H](n2cnc3c(N)ncnc32)[C@H](O)[C@@H]1O)C(N)=O [Compound 7, NAH-C4-GPKR]",fold better activity than 5,NTMT1 [2],4 fold
same,fold better activity than 6,NTMT1 [2],2 fold
NAH-C3-GPRRRS,IC50,NTMT1 [8],940 ± 160 nM
NAH-C3-PPKRIA,IC50,NTMT1 [9],35 ± 2 nM
same,selectivity against other methyltransferases,other methyltransferases,more than 100 fold
